From article PMC8501799, “Constitutive signal bias mediated by the human GHRHR splice variant 1” (Proceedings of the National Academy of Sciences of the …, 2021)

What was measured:
cell cycle = assay: Cell cycle analysis (propidium iodide, flow cytometry); type: cell-based; settings: 1 μM GHRH, 6 h
Description: Following the treatment, the cells were digested by trypsin and collected by centrifugation. Cell pellets were washed with PBS and fixed with 70% (vol/vol) ethanol at 4 °C overnight. Cells were again collected by centrifugation and washed twice with PBS. They were then resuspended in PBS containing 0.2% Triton X-100, 50 μg/mL propidium iodide (PI), and […] RNase A and incubated for 30 min at 4 °C in the dark. After incubation, fluorescence intensity was measured with a NovoCyte flow cytometer (Acea Biosciences). Cells were gated for PI staining and cell accumulation in G1, and S and G2/M phases were calculated using the NovoExpress software.

SV1 mutants = assay: cAMP accumulation, peptide-binding pocket mutants of SV1; type: cell-based, human; settings: impairing contacts in the peptide-binding pocket; HEK293T; Fig. 4D
Description: (§1) GHRH-stimulated cAMP accumulation was measured by a LANCE Ultra cAMP kit (PerkinElmer). Briefly, HEK293T cells (24 h after transfection with SV1 or GHRHR) or prostate cancer cells were digested by 0.2% (wt/vol) EDTA and washed once with Dulbecco’s phosphate-buffered saline (PBS). Cells were then resuspended with stimulation buffer (Hanks’ balanced salt solution [HBSS] supplemented with 5 mM HEPES, 0.5 mM IBMX, and 0.1% [wt/vol] bovine serum albumin [BSA], pH 7.4) to a density of 0.6 million cells per milliliter and added to 384-well white plates (3,000 cells per well). […] The reaction was stopped by adding 5 μL Eu-cAMP tracer and 5 μL ULight-anti-cAMP. After 1 h RT incubation, TR-FRET signals (excitation: 320 nm, emission: 615 and 665 nm) were measured by an Envision plate reader (PerkinElmer). cAMP concentrations were interpolated by a standard curve.

[1] = test system: N terminus truncated GHRHRs; assay: β-arrestin 1/2 recruitment (BRET), truncated receptors; type: cell-based, human; settings: HEK293T
Description: HEK293T cells were seeded at a density of 30,000 cells per well into 96-well culture plates pretreated with poly-D-lysine hydrobromide. After incubation for 24 h to reach 70% to 80% confluence, the cells were transiently transfected with HA-Flag-GHRHR-Rluc8 or HA-Flag-SV1-Rluc8 and β-arrestin 1/2-Venus at a 1:9 mass ratio using lipofectamine 3000 reagent (Invitrogen) and cultured for another 24 h. Thereafter, cells were washed once and incubated for 30 min at 37 °C with HBSS buffer (pH 7.4) supplemented with 0.1% BSA and 10 mM HEPES. Five micromolars of coelenterazine h (YEASEN Biotechnology) was then added and incubated for 5 min in the dark. The bioluminescence resonance energy transfer (BRET) signals were detected with an Envision plate reader by calculating the ratio of emission at 535 nm over emission at 470 nm.

SV1/Gs = assay: Gs activation (G protein NanoBiT assay); type: cell-based, human; settings: HEK293T
Description: HEK293T cells were seeded at a density of 30,000 cells per well into 96-well culture plates pretreated with poly-D-lysine hydrobromide. After incubation for 24 h to reach 70% to 80% confluence, the cells were transiently transfected with GHRHR or SV1, Gαs-LgBiT, Gβ1, and Gγ2-SmBiT, at a 2:1:5:5 mass ratio. Twenty-four hours after transfection, cells were washed once and incubated for 30 min at 37 °C with HBSS buffer (pH 7.4) supplemented with 0.1% BSA and 10 mM HEPES. They were then reacted with coelenterazine H (5 μM) for 1 h at RT. Luminescence signals were measured using an Envision plate reader at 15-s intervals (25 °C). […] Data were corrected to baseline and vehicle-treated samples.
All functional study data were analyzed using Prism 7 (GraphPad) and presented as means ± SEM from at least three independent experiments. Concentration-response curves were evaluated with a three-parameter logistic equation. The significance was determined with either two-tailed Student’s t test or one-way ANOVA, and P < 0.05 is considered statistically significant.
Table S1. Effects of SV1 on GHRH-induced Gs activation.
Plasmid pEC50 Emax (% WT GHRHR)
G protein NanoBiT data were analyzed using a three-parameter logistic equation to d et ermine pEC50 and Emax values. pEC50 is the negative logarithm of the molar concentration of agonist that induced half the maximal response. Emax is expressed as a percentage of GHRHR/Gs response.
All values are means ± S.E.M. of five independent experiments (n = 5) conducted in duplicate. One-way ANOVA was used to determine statistical significance (*P < 0.05). WT, wild-type; NA, not

[2] = test system: GHRHR ECD mutants (L34, L62, F82, F85 to alanine); assay: cAMP accumulation, ECD alanine mutants of GHRHR; type: cell-based, human; settings: any or all of four ECD residues (L34, L62, F82, F85) to alanine; HEK293T
Description: as §1

Structure (SMILES): CC[C@H](C)[C@H](NC(=O)[C@H](C)NC(=O)[C@H](CC(=O)O)NC(=O)[C@H](C)NC(=O)[C@@H](N)Cc1ccc(O)cc1)C(=O)N[C@@H](Cc1ccccc1)C(=O)N[C@H](C(=O)N[C@@H](CC(N)=O)C(=O)N[C@@H](CO)C(=O)N[C@@H](Cc1ccc(O)cc1)C(=O)N[C@@H](CCCNC(=N)N)C(=O)N[C@@H](CCCCN)C(=O)N[C@H](C(=O)N[C@@H](CC(C)C)C(=O)NCC(=O)N[C@@H](CCC(N)=O)C(=O)N[C@@H](CC(C)C)C(=O)N[C@@H](CO)C(=O)N[C@@H](C)C(=O)N[C@@H](CCCNC(=N)N)C(=O)N[C@@H](CCCCN)C(=O)N[C@@H](CC(C)C)C(=O)N[C@@H](CC(C)C)C(=O)N[C@@H](CCC(N)=O)C(=O)N[C@@H](CC(=O)O)C(=O)N[C@H](C(=O)N[C@@H](CCSC)C(=O)N[C@@H](CO)C(=O)N[C@@H](CCCNC(=N)N)C(=O)N[C@@H](CCC(N)=O)C(=O)N[C@@H](CCC(N)=O)C(=O)NCC(=O)N[C@@H](CCC(=O)O)C(=O)N[C@@H](CO)C(=O)N[C@@H](CC(N)=O)C(=O)N[C@@H](CCC(N)=O)C(=O)N[C@@H](CCC(=O)O)C(=O)N[C@@H](CCCNC(=N)N)C(=O)NCC(=O)N[C@@H](C)C(=O)N[C@@H](CCCNC(=N)N)C(=O)N[C@@H](C)C(=O)N[C@@H](CCCNC(=N)N)C(=O)N[C@@H](CC(C)C)C(N)=O)[C@@H](C)CC)C(C)C)[C@@H](C)O [GHRH, growth hormone–releasing hormone]
- cells in G1 phase (cell cycle; decreased from 46.6): 32.8%
- cells in G2/M phase (cell cycle; increased from 22.8): 37.7%
- potency of GHRH-induced cAMP accumulation (SV1 mutants): dramatically decreased the potency
- β-arrestin 1/2 recruitments ([1]; deletion made before the first 82 residues, 250 μM GHRH): not affected
- β-arrestin 1/2 recruitments ([1]; truncation of the first 89 residues or the entire ECD): enhanced
- Emax of Gs activation (SV1/Gs; AUC 0 to 25 min, mean ± SEM, n = 5 in duplicate, * P < 0.05): 56.67 ± 13.79 % WT GHRHR
- pEC50 of Gs activation (SV1/Gs; AUC 0 to 25 min, three-parameter logistic, mean ± SEM, n = 5 in duplicate, * P < 0.05): 5.63 ± 0.36
- ability of SV1 to activate Gs (SV1/Gs; compared with GHRHR, Fig. 1A): significantly impaired
- GHRHR-elicited cAMP responses [2]: reduced GHRHR-elicited cAMP responses
